Tests used:
[1] = biological target: hCA I (Homo sapiens, UniProt P00915); assay: stopped-flow CO2 hydrase assay, hCA I; assay type: biochemical; conditions: incubation time 6 h, mean of three experiments
Description: (§1) The target coumarins 5a–p and 7a–c were examined for their CA inhibitory actions towards the ubiquitous CA I and II (cytosolic) as well as the tumour-associated CA IX and XII isozymes by the use of a stopped-flow CO2 hydrase assay, using acetazolamide (AZA) as a reference compound.
(§2) The experimental procedures utilised for CA inhibitory assay of the target compounds were carried out as described earlier, and presented in the Supplementary Materials.

[2] = biological target: hCA XII (Homo sapiens, UniProt O43570); assay: stopped-flow CO2 hydrase assay, hCA XII; assay type: biochemical; conditions: incubation time 6 h, mean of three experiments
Description: as §1, §2

[3] = tested on: MCF-7 cells; assay: MTT antiproliferative assay, MCF-7; assay type: cell-based, human; conditions: mean ± SEM of three experiments; for inhibition at 10 µM / inhibition at 100 µM: Homo sapiens; for inhibition at 10 µM: MCF7, MCF7, 10 µM, read-out: % Growth inhibition MCF7 10 µM; for inhibition at 100 µM: MCF7, MCF7, 100 µM, read-out: % Growth inhibition MCF7 100 µM
Description: (§3) Encouraged by the favourable selectivity profile of ureidocoumarins 5a–p and amidocoumarins 7a–c towards hCA IX and hCA XII, they were further examined for their prospective antiproliferative activity against human colorectal (HCT-116) and breast (MCF-7) cancer cell lines, adopting the MTT assay.
(§4) The evaluation of anticancer activity of the target compounds was conducted by MTT assay adopting the literature procedure.

[4] = biological target: hCA II (Homo sapiens, UniProt P00918); assay: stopped-flow CO2 hydrase assay, hCA II; assay type: biochemical; conditions: incubation time 6 h, mean of three experiments
Description: as §1, §2

[5] = tested on: HCT-116 cells; assay: MTT antiproliferative assay, HCT-116; assay type: cell-based, human; conditions: mean ± SEM of three experiments; for inhibition at 10 µM / inhibition at 100 µM: Homo sapiens; for inhibition at 10 µM: HCT-116, HCT116, 10 µM, read-out: % Growth inhibition HCT116 10 µM; for inhibition at 100 µM: HCT-116, HCT116, 100 µM, read-out: % Growth inhibition HCT116 100 µM
Description: as §3, §4

[6] = biological target: hCA IX (Homo sapiens, UniProt Q16790); assay: stopped-flow CO2 hydrase assay, hCA IX; assay type: biochemical; conditions: incubation time 6 h, mean of three experiments
Description: as §1, §2

hCA I, sequence (P00915 whole entry): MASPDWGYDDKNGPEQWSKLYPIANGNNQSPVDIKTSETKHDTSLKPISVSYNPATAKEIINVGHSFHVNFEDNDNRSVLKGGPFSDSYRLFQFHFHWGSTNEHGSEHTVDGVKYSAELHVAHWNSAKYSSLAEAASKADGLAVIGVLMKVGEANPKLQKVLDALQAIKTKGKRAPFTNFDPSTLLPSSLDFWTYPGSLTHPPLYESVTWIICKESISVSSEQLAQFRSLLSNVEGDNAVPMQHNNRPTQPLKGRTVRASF
hCA XII, sequence (O43570 25-354): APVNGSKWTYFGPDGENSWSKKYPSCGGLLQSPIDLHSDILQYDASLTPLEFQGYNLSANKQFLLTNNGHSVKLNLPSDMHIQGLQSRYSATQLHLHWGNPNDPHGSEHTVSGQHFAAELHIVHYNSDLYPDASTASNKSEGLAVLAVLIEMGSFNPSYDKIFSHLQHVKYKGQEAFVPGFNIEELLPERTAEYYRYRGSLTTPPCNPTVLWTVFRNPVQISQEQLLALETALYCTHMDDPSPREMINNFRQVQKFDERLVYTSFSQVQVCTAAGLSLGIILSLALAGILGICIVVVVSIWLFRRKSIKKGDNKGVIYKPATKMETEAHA

O=C(Nc1cccc(C(F)(F)F)c1)Nc1ccc2oc(=O)ccc2c1 [Compound 5a, 1-(2-Oxo-2H-chromen-6-yl)-3-(3-(trifluoromethyl)phenyl)urea]
melting point: 252 to 254 °C
Ki [1]: > 100000 nM
Ki [2]: 26.2 nM
inhibition at 10 µM [3]: 3.7 ± 1.9%
inhibition at 100 µM [3]: 34.7 ± 4.4%
Ki [4]: > 100000 nM
inhibition at 10 µM [5]: 8 ± 4.8%
inhibition at 100 µM [5]: 21.9 ± 4.6%
Ki [6]: 45.9 nM

O=C(Nc1ccc(C(F)(F)F)cc1)Nc1ccc2oc(=O)ccc2c1 [Compound 5b]
melting point: 276 to 278 °C
Ki [1]: > 100000 nM
Ki [2]: 38.5 nM
inhibition at 10 µM [3]: 4.2 ± 1.4%
inhibition at 100 µM [3]: 77.8 ± 5.1%
Ki [4]: > 100000 nM
inhibition at 10 µM [5]: 7.6 ± 2.8%
inhibition at 100 µM [5]: 77 ± 4%
Ki [6]: 71.4 nM

O=C(Nc1ccc(F)cc1)Nc1ccc2oc(=O)ccc2c1 [Compound 5c, 1-(4-Fluorophenyl)-3-(2-oxo-2H-chromen-6-yl)urea]
melting point: 249 to 250 °C
Ki [1]: > 100000 nM
Ki [2]: 40.2 nM
inhibition at 10 µM [3]: 9.5 ± 4.2%
inhibition at 100 µM [3]: 13.5 ± 4.3%
Ki [4]: > 100000 nM
inhibition at 10 µM [5]: 10.9 ± 1.6%
inhibition at 100 µM [5]: 31.3 ± 4.6%
Ki [6]: 41.5 nM

O=C(Nc1ccc(Br)cc1)Nc1ccc2oc(=O)ccc2c1 [Compound 5d, 1-(4-Bromophenyl)-3-(2-oxo-2H-chromen-6-yl)urea]
melting point: 257 to 258 °C
Ki [1]: > 100000 nM
Ki [2]: 51.1 nM
inhibition at 10 µM [3]: 18.2 ± 3.2%
inhibition at 100 µM [3]: 18.5 ± 4.5%
Ki [4]: > 100000 nM
inhibition at 10 µM [5]: 25.4 ± 2.7%
inhibition at 100 µM [5]: 31.7 ± 3.5%
Ki [6]: 70.6 nM

CCCCc1ccc(NC(=O)Nc2ccc3oc(=O)ccc3c2)cc1 [Compound 5e, 1-(4-Butylphenyl)-3-(2-oxo-2H-chromen-6-yl)urea]
melting point: 223 to 224 °C
Ki [1]: > 100000 nM
Ki [2]: 95.1 nM
inhibition at 10 µM [3]: 38.2 ± 2.5%
inhibition at 100 µM [3]: 46.4 ± 4.9%
Ki [4]: > 100000 nM
inhibition at 10 µM [5]: 20.1 ± 2.5%
inhibition at 100 µM [5]: 65 ± 6%
Ki [6]: 54.7 nM

CCCCOc1ccc(NC(=O)Nc2ccc3oc(=O)ccc3c2)cc1 [Compound 5f, 1-(4-Butoxyphenyl)-3-(2-oxo-2H-chromen-6-yl)urea]
melting point: 234 to 235 °C
Ki [1]: > 100000 nM
Ki [2]: 81.8 nM
inhibition at 10 µM [3]: 32.3 ± 2.6%
inhibition at 100 µM [3]: 46.9 ± 3.4%
Ki [4]: > 100000 nM
inhibition at 10 µM [5]: 15 ± 5.2%
inhibition at 100 µM [5]: 67.7 ± 0.6%
Ki [6]: 32.5 nM

O=C(Nc1ccc(Cl)c(C(F)(F)F)c1)Nc1ccc2oc(=O)ccc2c1 [Compound 5g, 1-(4-Chloro-3-(trifluoromethyl)phenyl)-3-(2-oxo-2H-chromen-6-yl)urea]
melting point: 253 to 255 °C
Ki [1]: > 100000 nM
Ki [2]: 29.4 nM
inhibition at 10 µM [3]: 10 ± 2.4%
inhibition at 100 µM [3]: 92.3 ± 0.6%
Ki [4]: > 100000 nM
inhibition at 10 µM [5]: 15.2 ± 4.4%
inhibition at 100 µM [5]: 90.5 ± 1.4%
Ki [6]: 66.4 nM

O=C(Nc1ccc(F)c(Cl)c1)Nc1ccc2oc(=O)ccc2c1 [Compound 5h, 1-(3-Chloro-4-fluorophenyl)-3-(2-oxo-2H-chromen-6-yl)urea]
melting point: 232 to 233 °C
Ki [1]: > 100000 nM
Ki [2]: 10.3 nM
inhibition at 10 µM [3]: 16.9 ± 5.3%
inhibition at 100 µM [3]: 91.2 ± 1%
Ki [4]: > 100000 nM
inhibition at 10 µM [5]: 11.9 ± 1.5%
inhibition at 100 µM [5]: 92.3 ± 1.2%
Ki [6]: 24.1 nM

O=C(Nc1cc(C(F)(F)F)cc(C(F)(F)F)c1)Nc1ccc2oc(=O)ccc2c1 [Compound 5i, 1-(3,5-Bis(trifluoromethyl)phenyl)-3-(2-oxo-2H-chromen-6-yl)urea]
Ki [1]: > 100000 nM
Ki [2]: 5.9 nM
inhibition at 10 µM [3]: > 50%
inhibition at 100 µM [3]: > 90%
% Growth inhibition MCF7 10 µM ([3]; MCF7, 10 µM): 51.5 ± 3.1%
% Growth inhibition MCF7 100 µM ([3]; MCF7, 100 µM): 93.9 ± 0.4%
Ki [4]: > 100000 nM
% Growth inhibition HCT116 10 µM ([5]; HCT116, 10 µM): 70.4 ± 2.6%
% Growth inhibition HCT116 100 µM ([5]; HCT116, 100 µM): 94.2 ± 1.1%
inhibition at 100 µM [5]: > 90%
Ki [6]: 14.7 nM

O=C(Nc1cc(Cl)cc(Cl)c1)Nc1ccc2oc(=O)ccc2c1 [Compound 5j, 1-(3,5-Dichlorophenyl)-3-(2-oxo-2H-chromen-6-yl)urea]
melting point: 252 to 253 °C
Ki [1]: > 100000 nM
Ki [2]: 23.4 nM
inhibition at 10 µM [3]: 6.1 ± 2%
inhibition at 100 µM [3]: 91.1 ± 0.6%
Ki [4]: > 100000 nM
inhibition at 10 µM [5]: 19.2 ± 3.8%
inhibition at 100 µM [5]: 91.9 ± 1.1%
Ki [6]: 19.9 nM

Cc1cc(C)cc(NC(=O)Nc2ccc3oc(=O)ccc3c2)c1 [Compound 5k, 1-(3,5-Dimethylphenyl)-3-(2-oxo-2H-chromen-6-yl)urea]
melting point: 238 to 239 °C
Ki [1]: > 100000 nM
Ki [2]: 27.4 nM
inhibition at 10 µM [3]: 33.2 ± 3.2%
inhibition at 100 µM [3]: 66.7 ± 5%
Ki [4]: > 100000 nM
inhibition at 10 µM [5]: 14.5 ± 2.7%
inhibition at 100 µM [5]: 87.4 ± 1.8%
Ki [6]: 42.9 nM

O=C(Nc1ccc2oc(=O)ccc2c1)Nc1ccc(Cl)cc1Cl [Compound 5l, 1-(2,4-Dichlorophenyl)-3-(2-oxo-2H-chromen-6-yl)urea]
melting point: 291 to 292 °C
Ki [1]: > 100000 nM
Ki [2]: 56.7 nM
inhibition at 10 µM [3]: 5.9 ± 2.7%
inhibition at 100 µM [3]: 6.6 ± 2.5%
Ki [4]: > 100000 nM
inhibition at 10 µM [5]: 2.6 ± 1.8%
inhibition at 100 µM [5]: 6.7 ± 1.7%
Ki [6]: 50.6 nM

O=C(Nc1ccc2oc(=O)ccc2c1)Nc1ccc(F)cc1F [Compound 5m, 1-(2,4-Difluorophenyl)-3-(2-oxo-2H-chromen-6-yl)urea]
Ki [1]: > 100000 nM
Ki [2]: 7.2 nM
inhibition at 10 µM [3]: 15.2 ± 1.4%
inhibition at 100 µM [3]: 22.7 ± 3.3%
Ki [4]: > 100000 nM
inhibition at 10 µM [5]: 25.7 ± 2.3%
inhibition at 100 µM [5]: 26.1 ± 4%
Ki [6]: 25.6 nM

Cc1cc(Cl)ccc1NC(=O)Nc1ccc2oc(=O)ccc2c1 [Compound 5n, 1-(4-Chloro-2-methylphenyl)-3-(2-oxo-2H-chromen-6-yl)urea]
Ki [1]: > 100000 nM
Ki [2]: 43.1 nM
inhibition at 10 µM [3]: 16.7 ± 4.9%
inhibition at 100 µM [3]: 19.9 ± 1.2%
Ki [4]: > 100000 nM
inhibition at 10 µM [5]: 4.9 ± 2.5%
inhibition at 100 µM [5]: 20.5 ± 3.5%
Ki [6]: 28.4 nM

Cc1cccc(Cl)c1NC(=O)Nc1ccc2oc(=O)ccc2c1 [Compound 5o, 1-(2-Chloro-6-methylphenyl)-3-(2-oxo-2H-chromen-6-yl)urea]
Ki [1]: > 100000 nM
Ki [2]: 13.8 nM
inhibition at 10 µM [3]: 30.3 ± 1.5%
inhibition at 100 µM [3]: 72.8 ± 5.5%
Ki [4]: > 100000 nM
inhibition at 10 µM [5]: 9.7 ± 4%
inhibition at 100 µM [5]: 78.6 ± 3.7%
Ki [6]: 19.2 nM

O=C(Nc1ccc2oc(=O)ccc2c1)Nc1c(Br)cc(F)cc1Br [Compound 5p, 1-(2,6-Dibromo-4-fluorophenyl)-3-(2-oxo-2H-chromen-6-yl)urea]
Ki [1]: > 100000 nM
Ki [2]: 50.4 nM
inhibition at 10 µM [3]: 21.4 ± 3%
inhibition at 100 µM [3]: 79.5 ± 2.4%
Ki [4]: > 100000 nM
inhibition at 10 µM [5]: 14.1 ± 3%
inhibition at 100 µM [5]: 75.2 ± 5.8%
Ki [6]: 72.8 nM

O=C(Nc1ccc2oc(=O)ccc2c1)c1ccc(Cl)c(C(F)(F)F)c1 [Compound 7a, 4-Chloro-N-(2-oxo-2H-chromen-6-yl)-3-(trifluoromethyl)benzamide]
melting point: 272 to 273 °C
Ki [1]: > 100000 nM
Ki [2]: 42.8 nM
inhibition at 10 µM [3]: 9.9 ± 3.4%
inhibition at 100 µM [3]: 19 ± 2.1%
Ki [4]: > 100000 nM
inhibition at 10 µM [5]: 14 ± 2.4%
inhibition at 100 µM [5]: 42.2 ± 2.5%
Ki [6]: 82.4 nM

O=C(Nc1ccc2oc(=O)ccc2c1)c1cc(C(F)(F)F)cc(C(F)(F)F)c1 [Compound 7b, N-(2-Oxo-2H-chromen-6-yl)-3,5-bis(trifluoromethyl)benzamide]
melting point: 240 to 241 °C
Ki [1]: > 100000 nM
Ki [2]: 37.5 nM
inhibition at 10 µM [3]: 11.3 ± 4%
inhibition at 100 µM [3]: 62.9 ± 6.4%
Ki [4]: > 100000 nM
inhibition at 10 µM [5]: 19.6 ± 2.4%
inhibition at 100 µM [5]: 76 ± 2.5%
Ki [6]: 55.6 nM

O=C(Nc1ccc2oc(=O)ccc2c1)c1cc(F)cc(F)c1 [Compound 7c, 3,5-Difluoro-N-(2-oxo-2H-chromen-6-yl)benzamide]
melting point: 301 to 303 °C
Ki [1]: > 100000 nM
Ki [2]: 40.5 nM
inhibition at 10 µM [3]: 21.1 ± 3.3%
inhibition at 100 µM [3]: 21.4 ± 4.7%
Ki [4]: > 100000 nM
inhibition at 10 µM [5]: 21.8 ± 3%
inhibition at 100 µM [5]: 52 ± 5.1%
Ki [6]: 61 nM
